The values below come from patent publication US20250319032A1, “PHARMACEUTICAL COMPOSITIONS OF RIBOCICLIB” (Novartis AG, priority 2024, published 2025).

“And” between values parts separate entries of the source, which are not always exact repeats. Equal values may be shown once.

The nature of data set [1]: DMP433 (N-nitroso-ribociclib) content in ribociclib base (B10) and ribociclib succinate (B12, drug substance) batches and process experiments, LC-MS/MS or HPLC-HRMS. The settings on record: for DMP433 in LEE011-B12 (IP): B10 Raybow batch 805193A078. It is filed as physicochemical. From the text: The method of testing for the presence and/or total amount of nitrosamines (such as the presence and/or total amount of N-nitroso-ribociclib in free or salt form) that is used in the methods of the invention may be any method which allows for the detection of nitrosamines in a composition. For example, the method may involve the Griess test described above. In such a method, the nitrosamines may be first denitrosated (e.g., by photolysis) to form a nitrite, which is then detected in the Griess test. Alternatively, the method may include high performance liquid chromatography (HPLC)- and/or gas chromatography (GC)-mass spectroscopy. An example of a method of testing for the presence and amount of nitrosamines (namely N-nitroso-ribociclib) is provided herein as Example 14. […]
2.7. […] Dissolve the substance using vortex and fill to volume with solvent (50% MeOH). • 3. Filter through 0.2 μm PVDF (polyvinylidene difluoride) or PTFE (polytetrafluoroethylene) filter into a HPLC amber vial, discard the first 0.5 ml.
A calibration curve for DMP433 is created, using calibration standard solutions L1-L6, and expressing the relationship between responses (peak areas) and standard concentrations (ng/ml). For L1, the average of 6 injections is used. Linear regression is weighed with 1/amount. […]

Data set [2] is described as follows: Nitrite content (ion chromatography; LC-FLD with DAN derivatisation; Griess test) in drug substance, intermediates, reagents, solvents, filters, excipients. It counts as physicochemical. Put shortly:
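Nitrite measured by Griess reaction (sulfanilamide diazotisation, N-(1-naphthyl)ethylenediamine azo coupling, spectrophotometric read) or by DAN derivatisation with C18 HPLC-fluorescence (10 mM KH2PO4 pH 8.0/methanol). About 1000 mg sample in 10 mL methanol/water 1:1; comparison standard ≈100 ppb nitrite.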
In general terms: Griess reagent forms a coloured azo dye with nitrite.

The nature of data set [3]: Drug product stability (film-coated tablets, tablet cores, blends, binary mixtures): content of DMP433 on storage. It is filed as physicochemical. As to the method:
The experiments were packed in aluminium bags.
Blends and compressed (compacted) mixtures of drug substance with the excipients crospovidone (Type A) and microcrystalline cellulose with standard and low nitrite content, and low substituted hydroxypropyl cellulose (L-HPC) from the drug product composition were subjected to accelerated storage conditions (40° C. and 50° C.) for periods up to 1 month. […]
Binary mixtures were prepared in the same portion as present in the formulation. The samples were packed in alu bags. […]
2.8. Sample solution-ribociclib FCT (KISQALI®) • 1. Grind and homogenize 10 tablets (IKA mill can be used). • 2. Into a 10 mL amber volumetric flask accurately about 180 mg of tablet powder (corresponding to 80 mg of ribociclib free base). • 3. Add solvent (50% MeOH) up to ⅔ of flask volume. Vortex the sample for 1 minute and shake on a mechanical shaker for at least 15 min. Fill to volume with solvent and use vortex for 1 minute. • 4. Filter through 0.2 μm PVDF or PTFE filter into a HPLC amber vial, discard the first 0.5 mL. […]
The content of DMP433 was analysed. […]

Data set [4] is described as follows: Validation of the HPLC-HRMS method for N-nitroso-ribociclib (precision, accuracy, linearity, LOQ, stability of standard and sample solutions). As to the method:
For the purpose of this validation only, the 100% target limit was set at 3.75 ppm (1500 ng NRR/400 mg ribociclib free base).
Six replicates of the “Sample solution” were prepared according to the procedure described above and tested on the same day. The results are expressed as ppm of NNR with regard to ribociclib free base (μg NNR/g ribociclib free base)
Two series of six replicates of the “Sample solutions” were prepared according to the procedure described above and tested by two different analysts, on two different days, using different LC/MS systems and different columns. The results are expressed as ppm of NNR with regard to ribociclib free base (μg NNR/g ribociclib free base)
Three replicates of calibration standard solutions L1 (c=0.5 ng/ml) and L6 (c=100 ng/ml) were prepared according to the procedure described above. Solutions were stored in the dark at room temperature (autosampler (AS) vials). After a period of time, the solutions were reanalyzed. The stability of standard solutions is evaluated by determining the relative difference between the responses […] The results are expressed as concentration in ng/ml, determined from calibration curve in each sequence (time point).
Three replicates of Sample solution were prepared according to AP. The replicates were analysed at t=0 h and after app. 24 hours and 48 hours of storage in vials AS at room temperature. The results are expressed as ppm of NNR wrt ribociclib free base. (μg NNR/g ribociclib free base).
In addition, FCT samples stored in flasks on the bench were filtered at defined time point and analysed. For 48 hours stability, composite samples (from Accuracy) were used.
Sample solutions were prepare according to the procedure described above using 10 mL, 25 mL and 50 mL flasks, three replicates for each volume. Results for 25 mL and 50 mL were compared to 10 mL volume that is prescribed in the AP. The results are expressed as ppm of NNR with regard to ribociclib free base (μg NNR/g ribociclib free base)
For ribociclib FCT, one composite sample preparation and three replicates of spiked composite sample solutions (prepared as described above) were prepared and tested on the same day.
The samples (drug substance or composite sample) were spiked at 0.5 ng/ml (0.0625 ppm), 30 ng/mlL (3.75 ppm) and 100 ng/ml (12.5 ppm) levels. Amount of NNR present in the unspiked sample was subtracted and recoveries were calculated as a ratio between amounts found and amounts added.
In each sequence, calibration solution L1 was injected six times as part of SST test (Repeatability of injections) and the average response was taken for the calculation of calibration curve. Linear regression was weighed with 1/amount.
Amount of NNR present in the unspiked sample was subtracted (see above) and RSD of corrected amounts calculated.

The nature of data set [5]: NDMA content in LEE011-B12 (IP) after ion exchange resin treatment (option 2 process). It counts as physicochemical. The settings on record: (n.d.).
The conditions of data set [6]: DSC, heating rate 10 ° C./min (with pinhole), cited from earlier work.
The mark [7] stands for this setting: additional batches of ribociclib base LEE011-B10 (IP-1).
The mark [8] stands for this setting: starting material used in the theoretical calculation.
Where [9] appears, read: laboratory use test, salt formation B10 to B12 with filter parts added (filter per experiment), AS&T LJ LC-MS/MS.
[10] abbreviates: laboratory use test, salt formation B10 to B12 with filter parts added, QLS LJ LC-FLD/DAN.
Setting [11] is: Raybow batch 805193A078, starting material of resin loading experiments.

On to `CN(C)C(=O)c1cc2cnc(Nc3ccc(N4CCNCC4)cn3)nc2n1C1CCCC1` [Batch B705468], for which the “DMP433 [ppb]” value in data set [1] (setting [7]) is 130 ppb. The “DMP433 [ppm]” value in data set [1] (setting [8]) is on record as 0.03 ppm. Further, the “Nitrite [ppm] LOD (1 ppm)” value in data set [2] (setting [7]) was “<LOD”. Besides, the “Nitrite [ppm]” value in data set [2] (setting [8]) is under 0.1 ppm.

In the case of `CN(C)C(=O)c1cc2cnc(Nc3ccc(N4CCNCC4)cn3)nc2n1C1CCCC1.O=C(O)CCC(=O)O` [DS (B699003AA) (compact)], the DMP433 content in data set [3] (T0, binary mixtures/blends/compacts, alu bags) was determined as 0.7 ppm; in data set [3] (T 1 m (50° C./75% RH), alu bags), 1.1 ppm; in data set [3] (T 2 w (40° C./75% RH), alu bags) it was 0.9 ppm; in data set [3] (T 2 w (50° C./75% RH), alu bags), 0.8 ppm.

For `CN(C)C(=O)c1cc2cnc(Nc3ccc(N4CCNCC4)cn3)nc2n1C1CCCC1.O=C(O)CCC(=O)O` [DS (B699003AA) compact], the DMP433 content in data set [3] (binary studies of drug substance with excipients, T0) is 0.7 ppm; in data set [3] (binary studies, 40° C., T 2 Weeks) it was 0.9 ppm; in data set [3] (binary studies, 50° C., T 1 Month), 1.1 ppm; in data set [3] (binary studies, 50° C., T 2 Weeks) it was 0.8 ppm.

`CN(C)C(=O)c1cc2cnc(Nc3ccc(N4CCNCC4)cn3)nc2n1C1CCCC1` [LEE011-B10 24003]: in data set [1] (B10 batches on commercial scale, potassium carbonate of different nitrite level), the “DMP433 (ppm) in B10” value turned out to be 0.05 ppm. Moreover, the “Nitrite [ppm]” value in data set [2] (in B10 batches on commercial scale, potassium carbonate of different nitrite level) came to 0.1 ppm.

As to `CN(C)C(=O)c1cc2cnc(Nc3ccc(N4CCNCC4)cn3)nc2n1C1CCCC1.O=C(O)CCC(=O)O` [LEE011-cusakal1-021], the “DMP433 [ppm]” value in data set [1] (setting [9]) worked out at 1.682 LJ ppm. The “Nitrite [ppm]” value in data set [2] (setting [10]) was “app. 0.26 ppm”.

Consider `CN(C)C(=O)c1cc2cnc(Nc3ccc(N4CCNCC4)cn3)nc2n1C1CCCC1` [LEE011-cusakal1-032], for which the “DMP433 [ppm]” value in data set [1] (setting [9]) was determined as 1.487 ppm. Also, the “Nitrite [ppm]” value in data set [2] (setting [10]) is “app. 0.3 ppm”.

Turning to `CN(C)C(=O)c1cc2cnc(Nc3ccc(N4CCNCC4)cn3)nc2n1C1CCCC1.O=C(O)CCC(=O)O` [LEE011-cusakal1-033], the “DMP433 [ppm]” value in data set [1] (setting [9]) was found to be 1.272 ppm. Moreover, in data set [2] (setting [10]), the “Nitrite [ppm]” value is recorded as “app. 0.3 ppm”.

On to `CN(C)C(=O)c1cc2cnc(Nc3ccc(N4CCNCC4)cn3)nc2n1C1CCCC1.O=C(O)CCC(=O)O` [LEE011-cusakal1-034], for which the “DMP433 [ppm]” value in data set [1] (setting [9]) came out at 1.789 ppm. Further, the “Nitrite [ppm]” value in data set [2] (setting [10]) is reported as “app. 0.2 ppm”.

Take `CN(C)C(=O)c1cc2cnc(Nc3ccc(N4CCNCC4)cn3)nc2n1C1CCCC1.O=C(O)CCC(=O)O` [LEE011-cusakal1-035]: the “DMP433 [ppm]” value in data set [1] (setting [9]) is reported as 1.661 ppm. In addition, in data set [2] (setting [10]), the “Nitrite [ppm]” value is given as “app. 0.2 ppm”.

For the compound `CN(C)C(=O)c1cc2cnc(Nc3ccc(N4CCNCC4)cn3)nc2n1C1CCCC1.O=C(O)CCC(=O)O` [LEE011-cusakal1-036], in data set [1] (setting [9]), the “DMP433 [ppm]” value amounted to 2.100 ppm. Also, the “Nitrite [ppm]” value in data set [2] (setting [10]) is reported as “app. 0.3 ppm”.

As to `CN(C)C(=O)c1cc2cnc(Nc3ccc(N4CCNCC4)cn3)nc2n1C1CCCC1.O=C(O)CCC(=O)O` [LEE011-cusakan1-050], the “DMP433 [ppm]” value in data set [1] (setting [9]) turned out to be 0.530 ppm. For the same compound, in data set [2] (setting [10]), the “Nitrite [ppm]” value is on record as “app. 0.6 ppm”.

Consider `CN(C)C(=O)c1cc2cnc(Nc3ccc(N4CCNCC4)cn3)nc2n1C1CCCC1.O=C(O)CCC(=O)O` [Ribociclib Succinate Drug Substance], for which the “NNR Amount found (ppm)” value is 0.3328 ppm and 0.3246 ppm and 0.3256 ppm in data set [4] (level S0, unspiked); 0.3754 ppm and 0.3778 ppm and 0.3796 ppm and 0.3774 ppm and 0.3781 ppm and 0.3824 ppm in data set [4] (level S1, spiked 0.0625 ppm); 3.5823 ppm and 3.7302 ppm and 3.8822 ppm in data set [4] (level S2, spiked 3.75 ppm); 11.0295 ppm and 11.6248 ppm and 11.8859 ppm in data set [4] (level S3, spiked 12.5 ppm).

Take `CN(C)C(=O)c1cc2cnc(Nc3ccc(N4CCNCC4)cn3)nc2n1C1CCCC1.O=C(O)CCC(=O)O` [Ribociclib succinate]: in data set [1] (3 washes vs 2 washes of isopropanol), the “depletion of DMP433 in the ribociclib succinate (B12) crystal by additional washing” value was “about 38%”. In addition, the “DMP433 in LEE011-B12 (IP)” value in data set [1] (resin loading vs B10 20 w/w %, option 2 process) was 220 ppb; in data set [1] (resin loading vs B10 50 w/w %, wet cake) it was 211 ppb; in data set [1] (resin loading vs B10 100 w/w %, wet cake), 238 ppb. The “NDMA in LEE011-B12 (IP)” value in data set [5] (resin loading vs B10 20 w/w %), in data set [5] (resin loading vs B10 50 w/w %) and in data set [5] (resin loading vs B10 100 w/w %) was under 100 ppb each time.

For the compound `CN(C)C(=O)c1cc2cnc(Nc3ccc(N4CCNCC4)cn3)nc2n1C1CCCC1` [Ribociclib, 7-cyclopentyl-N, N-dimethyl-2-{[5-(piperazin-1-yl)pyridin-2-yl]amino}-7H-pyrrolo[2,3-d]pyrimidine-6-carboxamide], the “DMP433 in LEE011-B10” value in data set [1] (setting [11]) amounted to 92 ppb. Also, the “DMP433, best result” value in data set [1] (isopropanol distilled over ascorbic acid, B10 added last) was determined as 0.34 ppm. The “Nitrite in LEE011-B10” value in data set [2] (setting [11]) is on record as 257 ppb.

With `CN(C)C(=O)c1cc2cnc(Nc3ccc(N4CCNCC4)cn3)nc2n1C1CCCC1.O=C(O)CCC(=O)O` [ribociclib succinate Form E], in data set [6], the Endothermic onset was 210.0 °C. Further, in data set [6] (melting/decomposition, for information only), the Enthalpy is recorded as 194.8 J/g.

Consider `CN(C)C(=O)c1cc2cnc(Nc3ccc(N4CCNCC4)cn3)nc2n1C1CCCC1.O=C(O)CCC(=O)O` [ribociclib succinate drug substance], for which, in data set [4] (n = 6), the “NNR Average (ppm), Ruggedness” value is on record as 0.241 ppm. For the same compound, the “NNR Total average (ppm)” value in data set [4] (n = 12, intermediate precision) came to 0.240 ppm. In addition, the “NNR (ppm), Ruggedness, single replicate” value in data set [4] (second analyst, day, LC/MS system and column, replicates R1-R6) was 0.287 ppm and 0.243 ppm and 0.244 ppm and 0.176 ppm and 0.262 ppm and 0.235 ppm.
